In the supplement of paper PMC10307832:

Compound: COc1cc([C@@H]2c3cc4c(cc3[C@@H](O[C@@H]3O[C@@H]5CO[C@@H](C)O[C@H]5[C@H](O)[C@H]3O)[C@H]3COC(=O)[C@H]23)OCO4)cc(OC)c1O [Etoposide] + CC1(C)CCC(c2ccc(Cl)cc2)=C(CN2CCN(c3ccc(C(=O)NS(=O)(=O)c4ccc(N[C@H](CCN5CCOCC5)CSc5ccccc5)c(S(=O)(=O)C(F)(F)F)c4)cc3)CC2)C1 [Navitoclax] (partner 0.5 µM)
Test: relative viability (nuclei count vs DMSO), 5 days (fraction); higher = more cells survive
Settings: first compound 0.01 µM
Outline: (§1)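 Lung cancer cell lines in 1536-well plates were dosed by pin tool the day after seeding, either with one drug alone or with a fixed anchor-drug dose plus five library-drug doses (not always all listed) in √10 steps. After 5 days, cells were fixed and their nuclei stained in one step (final 0.05% Triton X-100, 1% formaldehyde, 1 ug/ml Hoechst), then counted on 4× images. Relative viability is the nuclei count in treated wells divided by that in vehicle wells. Values are medians of duplicate plates.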

| Cell Line | relative viability |
| --- | --- |
| COR-L 105 | 0.745 |
| LOU-NH91 | 0.695 |
| ChaGo-K-1 | 1.11 |
| NCI-H2170 | 0.625 |
| NCI-H3122 | 1.05 |
| HOP-62 | 1.07 |
| LU99A | 0.828 |
| BEN | 0.0656 |
| HARA | 1.11 |
| HCC-78 | 0.728 |
| NCI-H441 | 0.535 |
| NCI-H2009 | 1.13 |
| A-427 | 0.963 |
| NCI-H460 | 0.93 |
| NCI-H1734 | 0.761 |
| NCI-H520 | 0.985 |
| NCI-H2405 | 0.801 |
| SW 1573 | 0.926 |
| NCI-H1395 | 1.21 |
| 201T | 1.25 |
| NCI-H1915 | 0.826 |
| HCC-827 | 1.03 |
| LXF-289 | 0.977 |
| NCI-H2347 | 0.809 |
| CAL-12T | 1.13 |
| NCI-H1651 | 0.866 |
| EPLC-272H | 1.22 |
| NCI-H23 | 0.733 |

Same assay, conditions: first compound 0.03162 µM

| Cell Line | relative viability |
| --- | --- |
| COR-L 105 | 0.802 |
| LOU-NH91 | 0.654 |
| ChaGo-K-1 | 0.956 |
| NCI-H2170 | 0.728 |
| NCI-H3122 | 1.04 |
| HOP-62 | 0.995 |
| LU99A | 0.898 |
| BEN | 0.0585 |
| HARA | 1.16 |
| HCC-78 | 0.798 |
| NCI-H441 | 0.633 |
| LCLC-97TM1 | 0.62 |
| NCI-H2009 | 1.08 |
| A-427 | 0.937 |
| NCI-H460 | 0.796 |
| NCI-H1734 | 0.9 |
| NCI-H520 | 1 |
| NCI-H2405 | 0.912 |
| SW 1573 | 0.946 |
| NCI-H1395 | 1.15 |
| 201T | 1.23 |
| NCI-H1915 | 0.814 |
| HCC-827 | 0.985 |
| LXF-289 | 0.971 |
| NCI-H2347 | 0.626 |
| CAL-12T | 1.26 |
| NCI-H1651 | 0.881 |
| EPLC-272H | 1.25 |
| NCI-H23 | 0.816 |

Same assay, conditions: first compound 0.1 µM

| Cell Line | relative viability |
| --- | --- |
| COR-L 105 | 0.79 |
| LOU-NH91 | 0.504 |
| ChaGo-K-1 | 0.755 |
| NCI-H3122 | 1.05 |
| HOP-62 | 0.987 |
| LU99A | 0.45 |
| HARA | 1.17 |
| HCC-78 | 0.341 |
| NCI-H441 | 0.571 |
| LCLC-97TM1 | 0.327 |
| NCI-H2009 | 1.21 |
| A-427 | 0.525 |
| NCI-H460 | 0.6 |
| NCI-H1734 | 0.665 |
| NCI-H520 | 1.08 |
| NCI-H2405 | 0.532 |
| SW 1573 | 0.639 |
| NCI-H1395 | 0.893 |
| 201T | 1.13 |
| NCI-H1915 | 0.815 |
| HCC-827 | 0.956 |
| LXF-289 | 0.984 |
| NCI-H2347 | 0.405 |
| CAL-12T | 1.17 |
| NCI-H1651 | 0.808 |
| EPLC-272H | 0.71 |
| NCI-H23 | 0.502 |

Same assay, conditions: first compound 0.3162 µM

| Cell Line | relative viability |
| --- | --- |
| COR-L 105 | 0.516 |
| LOU-NH91 | 0.464 |
| ChaGo-K-1 | 0.391 |
| NCI-H2170 | 0.525 |
| NCI-H3122 | 0.877 |
| HOP-62 | 0.598 |
| LU99A | 0.311 |
| BEN | 0.057 |
| HARA | 0.864 |
| HCC-78 | 0.313 |
| NCI-H441 | 0.168 |
| LCLC-97TM1 | 0.178 |
| NCI-H2009 | 0.771 |
| A-427 | 0.53 |
| NCI-H460 | 0.0627 |
| NCI-H1734 | 0.598 |
| NCI-H520 | 0.951 |
| NCI-H2405 | 0.513 |
| SW 1573 | 0.209 |
| NCI-H1395 | 0.988 |
| 201T | 1.14 |
| NCI-H1915 | 0.725 |
| HCC-827 | 0.613 |
| LXF-289 | 0.605 |
| NCI-H2347 | 0.354 |
| CAL-12T | 0.752 |
| NCI-H1651 | 0.242 |
| EPLC-272H | 0.962 |
| NCI-H23 | 0.421 |

Same assay, conditions: first compound 1 µM

| Cell Line | relative viability |
| --- | --- |
| COR-L 105 | 0.586 |
| LOU-NH91 | 0.329 |
| ChaGo-K-1 | 0.274 |
| NCI-H2170 | 0.399 |
| NCI-H3122 | 0.477 |
| HOP-62 | 0.236 |
| LU99A | 0.189 |
| BEN | 0.0632 |
| HARA | 0.337 |
| HCC-78 | 0.158 |
| NCI-H441 | 0.189 |
| LCLC-97TM1 | 0.141 |
| NCI-H2009 | 0.496 |
| A-427 | 0.256 |
| NCI-H460 | 0.0154 |
| NCI-H1734 | 0.266 |
| NCI-H520 | 0.956 |
| NCI-H2405 | 0.187 |
| SW 1573 | 0.0658 |
| NCI-H1395 | 0.682 |
| 201T | 1.02 |
| NCI-H1915 | 0.621 |
| HCC-827 | 0.331 |
| LXF-289 | 0.174 |
| NCI-H2347 | 0.28 |
| CAL-12T | 0.791 |
| NCI-H1651 | 0.154 |
| EPLC-272H | 0.436 |
| NCI-H23 | 0.254 |

Compound: COc1cc([C@@H]2c3cc4c(cc3[C@@H](O[C@@H]3O[C@@H]5CO[C@@H](C)O[C@H]5[C@H](O)[C@H]3O)[C@H]3COC(=O)[C@H]23)OCO4)cc(OC)c1O [Etoposide] + COc1cc2c(Oc3ccc(NC(=O)C4(C(=O)Nc5ccc(F)cc5)CC4)cc3F)ccnc2cc1OCCCN1CCOCC1 [Foretinib] (partner 0.25 µM)
Test: as above
Settings: first compound 0.01 µM
Outline: as §1

| Cell Line | relative viability |
| --- | --- |
| COR-L 105 | 0.926 |
| LOU-NH91 | 0.919 |
| ChaGo-K-1 | 0.781 |
| NCI-H2170 | 0.988 |
| NCI-H3122 | 0.972 |
| HOP-62 | 1.06 |
| LU99A | 0.911 |
| BEN | 0.564 |
| HARA | 0.703 |
| HCC-78 | 0.476 |
| NCI-H441 | 0.923 |
| LCLC-97TM1 | 0.87 |
| NCI-H2009 | 1.17 |
| A-427 | 0.947 |
| NCI-H460 | 0.871 |
| NCI-H1734 | 0.776 |
| NCI-H520 | 0.825 |
| NCI-H2405 | 1.01 |
| SW 1573 | 0.873 |
| NCI-H1395 | 1 |
| 201T | 0.981 |
| NCI-H1915 | 1.06 |
| HCC-827 | 0.996 |
| LXF-289 | 0.973 |
| NCI-H2347 | 0.844 |
| CAL-12T | 1.19 |
| NCI-H1651 | 0.781 |
| EPLC-272H | 0.626 |
| NCI-H23 | 0.924 |

Same assay, conditions: first compound 0.03162 µM

| Cell Line | relative viability |
| --- | --- |
| COR-L 105 | 1.3 |
| LOU-NH91 | 0.949 |
| ChaGo-K-1 | 0.978 |
| NCI-H2170 | 1.02 |
| NCI-H3122 | 0.975 |
| HOP-62 | 1.05 |
| LU99A | 0.966 |
| BEN | 0.884 |
| HARA | 0.9 |
| HCC-78 | 0.532 |
| NCI-H441 | 0.838 |
| LCLC-97TM1 | 0.988 |
| NCI-H2009 | 1.24 |
| A-427 | 1.08 |
| NCI-H460 | 0.907 |
| NCI-H1734 | 0.923 |
| NCI-H520 | 0.93 |
| NCI-H2405 | 1.08 |
| SW 1573 | 0.931 |
| NCI-H1395 | 0.978 |
| 201T | 0.931 |
| NCI-H1915 | 1.18 |
| HCC-827 | 1.01 |
| LXF-289 | 0.971 |
| NCI-H2347 | 0.981 |
| CAL-12T | 1.16 |
| NCI-H1651 | 0.659 |
| EPLC-272H | 0.722 |
| NCI-H23 | 0.941 |

Same assay, conditions: first compound 0.1 µM

| Cell Line | relative viability |
| --- | --- |
| COR-L 105 | 1.02 |
| LOU-NH91 | 0.745 |
| ChaGo-K-1 | 0.8 |
| NCI-H2170 | 0.917 |
| NCI-H3122 | 0.962 |
| HOP-62 | 0.967 |
| LU99A | 0.43 |
| HARA | 0.291 |
| HCC-78 | 0.438 |
| NCI-H441 | 0.673 |
| LCLC-97TM1 | 0.732 |
| NCI-H2009 | 1.17 |
| A-427 | 0.853 |
| NCI-H460 | 0.809 |
| NCI-H1734 | 0.701 |
| NCI-H520 | 0.784 |
| NCI-H2405 | 1.05 |
| SW 1573 | 0.475 |
| NCI-H1395 | 0.868 |
| 201T | 1.1 |
| NCI-H1915 | 1.16 |
| HCC-827 | 0.915 |
| LXF-289 | 1.02 |
| NCI-H2347 | 0.515 |
| CAL-12T | 1.13 |
| NCI-H1651 | 0.784 |
| EPLC-272H | 0.552 |
| NCI-H23 | 0.678 |

Same assay, conditions: first compound 0.3162 µM

| Cell Line | relative viability |
| --- | --- |
| COR-L 105 | 1.02 |
| LOU-NH91 | 0.795 |
| ChaGo-K-1 | 0.281 |
| NCI-H2170 | 0.906 |
| NCI-H3122 | 0.682 |
| HOP-62 | 0.628 |
| LU99A | 0.466 |
| BEN | 0.657 |
| HARA | 0.534 |
| HCC-78 | 0.404 |
| NCI-H441 | 0.363 |
| LCLC-97TM1 | 0.341 |
| NCI-H2009 | 0.835 |
| A-427 | 0.424 |
| NCI-H460 | 0.142 |
| NCI-H1734 | 0.602 |
| NCI-H520 | 0.67 |
| NCI-H2405 | 0.899 |
| SW 1573 | 0.537 |
| NCI-H1395 | 0.885 |
| 201T | 0.778 |
| NCI-H1915 | 0.986 |
| HCC-827 | 0.284 |
| LXF-289 | 0.611 |
| NCI-H2347 | 0.59 |
| CAL-12T | 0.765 |
| NCI-H1651 | 0.351 |
| EPLC-272H | 0.61 |
| NCI-H23 | 0.4 |

Same assay, conditions: first compound 1 µM

| Cell Line | relative viability |
| --- | --- |
| COR-L 105 | 0.645 |
| LOU-NH91 | 0.406 |
| ChaGo-K-1 | 0.21 |
| NCI-H2170 | 0.765 |
| NCI-H3122 | 0.449 |
| HOP-62 | 0.418 |
| LU99A | 0.287 |
| BEN | 0.725 |
| HARA | 0.187 |
| HCC-78 | 0.252 |
| NCI-H441 | 0.286 |
| LCLC-97TM1 | 0.173 |
| NCI-H2009 | 0.694 |
| A-427 | 0.284 |
| NCI-H460 | 0.0668 |
| NCI-H1734 | 0.369 |
| NCI-H520 | 0.554 |
| NCI-H2405 | 0.43 |
| SW 1573 | 0.278 |
| NCI-H1395 | 0.606 |
| 201T | 0.425 |
| NCI-H1915 | 0.877 |
| HCC-827 | 0.177 |
| LXF-289 | 0.327 |
| NCI-H2347 | 0.387 |
| CAL-12T | 0.401 |
| NCI-H1651 | 0.251 |
| EPLC-272H | 0.255 |
| NCI-H23 | 0.242 |
